According to patent US8680290B2, “Isoxazoline derivatives and their use as herbicides” (Syngenta Limited, priority 2004, dated 2014):

How the values were obtained:
[1] = test system: Monocotyledonous and dicotyledonous test plants; experiment: Example B1 herbicidal action, application post-emergence (Table B1a); type: in vivo; conditions: 250 g/ha, evaluated after 3 weeks, scale 0-10
Method: (§1) Monocotyledonous and dicotyledonous test plants were sown in seed trays in standard soil. Immediately after sowing (pre-emergence) or after 8 to 9 days cultivation (post-emergence), the test compounds were applied by spraying in the form of an aqueous solution derived from the formulation of the technical active ingredient in 0.6 ml acetone and 45 ml formulation solution containing 10.6% Emulsogen EL (CAS RN 61791-12-6), 42.2% N-methylpyrrolidone, 42.2% dipropylene glycol monomethyl ether (CAS RN 34590-94-8) and 0.2% X-77 (CAS RN 11097-66-8). The test plants were then grown in a greenhouse under optimum conditions. After a test duration of 3 weeks (post-emergence) or 4 weeks (pre-emergence), the test was evaluated (10=total damage to plant, 0=no damage to plant).

[2] = test system: Monocotyledonous and dicotyledonous test plants; experiment: Example B1 herbicidal action, application pre-emergence (Table B1b); type: in vivo; conditions: 250 g/ha, evaluated after 4 weeks
Method: as §1

Row | SMILES | herbicidal damage rating, Abutilon [1] | herbicidal damage rating, Amaranthus [1] | herbicidal damage rating, Digitaria [1] | herbicidal damage rating, Panicum [1] | herbicidal damage rating, Setaria [1] | herbicidal damage rating, Sida [1] | herbicidal action (damage rating 0-10), Amaranthus [2] | herbicidal action (damage rating 0-10), Digitaria [2] | herbicidal action (damage rating 0-10), Panicum [2] | herbicidal action (damage rating 0-10), Setaria [2] | herbicidal action (damage rating 0-10), Sida [2]
1 | CC1(C)CC(S(=O)(=O)C(Br)c2ccccc2C#N)=NO1 (racemic) [1.83] | 5 | 5 | 9 | 7 | 7 | 3 | 9 | 9 | 10 | 9 | 0
2 | Cc1ccccc1C(F)S(=O)(=O)C1=NOC(C)(C)C1 (racemic) [1.93] | 3 | 7 | 7 | 8 | 3 | 2 | 8 | 10 | 10 | 10 | 6
3 | CC1(C)CC(S(=O)(=O)C(F)(Cl)c2ccccc2C(F)(F)F)=NO1 (racemic) [1.95] | 0 | 0 | 8 | 7 | 3 | 2 | 7 | 10 | 10 | 10 | 7
4 | COc1cc(OC)cc(C(F)(Cl)S(=O)(=O)C2=NOC(C)(C)C2)c1 (racemic) [1.96] | 5 | 0 | 8 | 5 | 3 | 2 | 9 | 10 | 10 | 10 | 4
5 | CC1(C)CC(S(=O)(=O)C(F)(I)c2c(F)cccc2F)=NO1 (racemic) [Compound No. 1.61] | 3 | 0 | 7 | 4 | 6 | 3 | 10 | 10 | 10 | 10 | 7
6 | C=C(OC(C)=O)C(F)(c1c(F)cccc1F)S(=O)(=O)C1=NOC(C)(C)C1 (racemic) [Compound No. 1.62] | 4 | 2 | 7 | 8 | 6 | 5 | 10 | 9 | 10 | 10 | 8
7 | CC1(C)CC(S(=O)(=O)C(C)(F)c2c(F)cccc2F)=NO1 (centres unmarked) [1.55] | 5 | 3 | 6 | 5 | 7 | 3 | 9 | 10 | 10 | 10 | 5
8 | CC1(C)CC(S(=O)(=O)C(F)(F)c2ccccc2C(F)(F)F)=NO1 [1.65] | 2 | 0 | 8 | 7 | 5 | 2 | 10 | 10 | 10 | 10 | 8
9 | CC1(C)CC(S(=O)(=O)C(F)(F)c2ccccc2OC(F)F)=NO1 [1.66] | 8 | 5 | 8 | 5 | 7 | 5 | 10 | 10 | 10 | 10 | 9
10 | CC1(C)CC(S(=O)(=O)C(F)(F)c2ccccc2OC(F)(F)F)=NO1 [1.67] | 4 | 3 |  | 3 | 5 | 4 | 10 | 10 | 10 | 10 | 9
11 | CC1(C)CC(S(=O)(=O)C(F)(F)c2ccccc2SC(F)(F)F)=NO1 [1.70] | 5 | 2 | 8 | 5 | 7 | 5 | 10 | 10 | 10 | 10 | 8
12 | CC1(C)CC(S(=O)(=O)C(F)(F)c2ccccc2C#N)=NO1 [1.72] | 3 | 8 | 7 | 7 | 8 | 0 | 10 | 10 | 10 | 10 | 6
13 | COc1cc(OC)cc(C(F)(F)S(=O)(=O)C2=NOC(C)(C)C2)c1 [1.76] | 5 | 3 |  | 5 | 5 | 5 | 9 | 9 | 10 | 8 | 3
14 | CC1(C)CC(S(=O)(=O)C(F)(F)c2ccccc2)=NO1 [1.77] | 5 | 0 | 8 | 5 | 6 | 3 | 10 | 10 | 10 | 10 | 7
